Source: the supplement of paper PMC10307832

Assays:
Test in all cases: relative viability (nuclei count vs DMSO), 5 days (fraction); higher = more cells survive
Crenolanib + Dasatinib = compound: CC1(COc2ccc3c(c2)ncn3-c2ccc3cccc(N4CCC(N)CC4)c3n2)COC1 [Crenolanib] + Cc1nc(Nc2ncc(C(=O)Nc3c(C)cccc3Cl)s2)cc(N2CCN(CCO)CC2)n1 [Dasatinib] (partner 0.075 µM)
Procedure, shortened: (§1)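 Cells from lung cancer lines were seeded into 1536-well plates and, one day later, dosed by pin tool. Treatments were either a single drug or a fixed dose of an anchor drug with five library-drug doses (not always all listed) in √10 steps. After 5 days, nuclei were stained in a one-step fixation (final 0.05% Triton X-100, 1% formaldehyde, 1 ug/ml Hoechst) and counted on 4× images, and relative viability is the treated-to-vehicle nuclei ratio, as the median of duplicate plates.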

Tivantinib + Luminespib = compound: O=C1NC(=O)[C@@H](c2cn3c4c(cccc24)CCC3)[C@@H]1c1c[nH]c2ccccc12 [Tivantinib] + CCNC(=O)c1noc(-c2cc(C(C)C)c(O)cc2O)c1-c1ccc(CN2CCOCC2)cc1 [Luminespib] (partner 0.01 µM)
Procedure, shortened: as §1

Tivantinib + Alpelisib = compound: O=C1NC(=O)[C@@H](c2cn3c4c(cccc24)CCC3)[C@@H]1c1c[nH]c2ccccc12 [Tivantinib] + Cc1nc(NC(=O)N2CCC[C@H]2C(N)=O)sc1-c1ccnc(C(C)(C)C(F)(F)F)c1 [Alpelisib] (partner 2 µM)
Procedure, shortened: as §1

Tivantinib + Decitabine = compound: O=C1NC(=O)[C@@H](c2cn3c4c(cccc24)CCC3)[C@@H]1c1c[nH]c2ccccc12 [Tivantinib] + Nc1ncn([C@H]2C[C@H](O)[C@@H](CO)O2)c(=O)n1 [Decitabine] (partner 2 µM)
Procedure, shortened: as §1

## UMC-11
Crenolanib + Dasatinib; first compound 0.01 µM
  relative viability: 0.45
Crenolanib + Dasatinib; first compound 0.03162 µM
  relative viability: 0.52
Crenolanib + Dasatinib; first compound 0.1 µM
  relative viability: 0.427
Crenolanib + Dasatinib; first compound 0.3162 µM
  relative viability: 0.506
Crenolanib + Dasatinib; first compound 1 µM
  relative viability: 0.481
Tivantinib + Luminespib; first compound 0.01 µM
  relative viability: 0.927
Tivantinib + Luminespib; first compound 0.03162 µM
  relative viability: 1.02
Tivantinib + Luminespib; first compound 0.1 µM
  relative viability: 0.928
Tivantinib + Luminespib; first compound 0.3162 µM
  relative viability: 1.13
Tivantinib + Alpelisib; first compound 0.01 µM
  relative viability: 0.961
Tivantinib + Alpelisib; first compound 0.03162 µM
  relative viability: 0.939
Tivantinib + Alpelisib; first compound 0.1 µM
  relative viability: 0.876
Tivantinib + Alpelisib; first compound 0.3162 µM
  relative viability: 0.939
Tivantinib + Decitabine; first compound 0.01 µM
  relative viability: 0.574
Tivantinib + Decitabine; first compound 0.03162 µM
  relative viability: 0.532
Tivantinib + Decitabine; first compound 0.1 µM
  relative viability: 0.527
Tivantinib + Decitabine; first compound 0.3162 µM
  relative viability: 0.434
